Source: US10633350B2, “Diphenyl derivatives and uses thereof” (NOVARTIS AG, priority 2017, dated 2020)
Where two headings read alike, the source gives them in different places.

How the values were obtained:
FoxO3a = FoxO3a inhibition assay (GFP-FoxO3a nuclear to cytoplasmic translocation) in U2OS GFP-FoxO3a H212R reporter cells; type: cell-based; details: serum starved overnight, 30 minutes compound treatment, ratio of nuclear to cytosolic GFP intensity, AC50 = concentration that results in 50% activation or inhibition, read-out: FoxO AC50
Outline: (§1)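 Serum-starved (overnight) cells treated with compounds at various doses for 30 min, then fixed in 4% paraformaldehyde and stained overnight at 4 °C for pAkt S473 with Hoechst nuclear counterstain; high-content imaging. FoxO3a readout: nuclear/cytosolic GFP ratio (%); Akt readout: total cellular pAkt intensity (%); DMSO = 0% activity.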

Akt = Akt activation assay (Phospho-AKT (Ser473) antibody staining) in U2OS GFP-FoxO3a H212R reporter cells; type: cell-based; details: serum starved overnight, 30 minutes compound treatment, total cellular intensity of Phospho-Akt (Ser473) antibody staining, AC50 = concentration that results in 50% activation or inhibition
Outline: as §1

Structure (SMILES) | AC50 (FoxO3a; Homo sapiens, 0.5 h) | AC50 (Akt; Homo sapiens, 0.5 h) | AC50 (FoxO3a) | AC50 (Akt)
Cc1cc(C(N)=O)nn1-c1ccc(Cc2ccc(-c3ccnc(C(C)(C)O)c3)cc2)cc1 [Example 23, 1-(4-(4-(2-(2-hydroxypropan-2-yl)pyridin-4-yl)benzyl)phenyl)-5-methyl-1H-pyrazole-3-carboxamide] | 121 nM | 639 nM | – | –
Cc1nc(C(N)=O)nn1-c1ccc(C(C)(C)c2ccc(-c3ccc(S(=O)(=O)N(C)C)cc3)cc2)cc1 [Example 13-2] | 112 nM | 252 nM | – | –
Cc1cc(C(N)=O)nn1-c1ccc(Cc2ccc(-c3ccc(CN4CCN(C)CC4)cc3)cc2)cc1 [Example 3-12, 5-methyl-1-(4-((4′-((4-methylpiperazin-1-yl)methyl)-[1,1′-biphenyl]-4-yl)methyl)phenyl)-1H-pyrazole-3-carboxamide] | 36 nM | 122 nM | – | –
Cc1cc(C(N)=O)nn1-c1ccc(Cc2ccc(-c3ccnc(CN(C)C)c3)cc2)cc1 [Example 5-4, 1-(4-(4-(2-((dimethylamino)methyl)pyridin-4-yl)benzyl)phenyl)-5-methyl-1H-pyrazole-3-carboxamide] | 160 nM | 789 nM | – | –
Cc1cc(C(N)=O)nn1-c1ccc(Cc2ccc(-c3ccc(CN4CCN(CCO)CC4)nc3)cc2)cc1 [Example 32, 1-(4-(4-(6-((4-(2-hydroxyethyl)piperazin-1-yl)methyl)pyridin-3-yl)benzyl)phenyl)-5-methyl-1H-pyrazole-3-carboxamide] | 315 nM | 647 nM | – | –
Cc1nc(C(N)=O)nn1-c1ccc(Cc2ccc(-c3ccc(CN4CCNCC4)cc3)cc2)cc1 [Example 45, 5-methyl-1-(4-((4′-(piperazin-1-ylmethyl)-[1,1′-biphenyl]-4-yl)methyl)phenyl)-1H-1,2,4-triazole-3-carboxamide] | 130 nM | 3 nM | – | –
Cc1nc(C(N)=O)nn1-c1ccc(Cc2ccc(-c3ccc(CN4CCN(C)CC4)nc3)cc2)cc1 [Example 34, 5-methyl-1-(4-(4-(6-((4-methylpiperazin-1-yl)methyl)pyridin-3-yl)benzyl)phenyl)-1H-1,2,4-triazole-3-carboxamide] | 300 nM | 576 nM | – | –
Cc1cc(C(N)=O)nn1-c1ccc(Cc2ccc(C3=CCN(C(=O)CN(C)C)CC3)cc2)cc1 [Example 3-11, 1-(4-(4-(1-(dimethylglycyl)-1,2,3,6-tetrahydropyridin-4-yl)benzyl)phenyl)-5-methyl-1H-pyrazole-3-carboxamide] | 132 nM | 504 nM | – | –
Cc1cc(C(N)=O)nn1-c1ccc(Cc2ccc(C3CCN(C)CC3)cc2)cc1 [Example 4, 5-methyl-1-(4-(4-(1-methylpiperidin-4-yl)benzyl)phenyl)-1H-pyrazole-3-carboxamide] | 325 nM | 1220 nM | – | –
Cc1nc(C(N)=O)nn1-c1ccc(Cc2ccc(-c3ccc(CN4CCN(C)CC4)cc3)cc2)cc1 [Example 15-1, 5-methyl-1-(4-((4′-((4-methylpiperazin-1-yl)methyl)-[1,1′-biphenyl]-4-yl)methyl)phenyl)-1H-1,2,4-triazole-3-carboxamide] | 69 nM | 166 nM | – | –
Cc1nc(C(N)=O)nn1-c1ccc(Cc2ccc(-c3ccc(CN4CCS(=O)(=O)CC4)cc3)cc2)cc1 [Example 39-32] | 48 nM | 85 nM | – | –
Cc1nnc(-c2cccc(-c3ccc(C(C)(C)c4ccc(-n5nc(C(N)=O)nc5C)cc4)cc3)c2)o1 [Example 13-13] | 179 nM | 506 nM | – | –
Cc1nc(C(N)=O)nn1-c1ccc(Cc2ccc(-c3ccc(CN4CCCC4)cc3)cc2)cc1 [Example 15-4] | 33 nM | 99 nM | – | –
Cc1nc(C(N)=O)nn1-c1ccc(Cc2ccc(-c3ccc(C(C)(C)O)nc3)cc2)cc1 [Example 46, 1-(4-(4-(6-(2-hydroxypropan-2-yl)pyridin-3-yl)benzyl)phenyl)-5-methyl-1H-1,2,4-triazole-3-carboxamide] | 234 nM | 1160 nM | – | –
Cc1cc(C(N)=O)nn1-c1ccc(C(C)(C)c2ccc(-c3ccnc(N)c3)cc2)cc1 [Example 6-5, 1-(4-(2-(4-(2-aminopyridin-4-yl)phenyl)propan-2-yl)phenyl)-5-methyl-1H-pyrazole-3-carboxamide] | 134 nM | 415 nM | – | –
Cc1cc(C(N)=O)nn1-c1ccc(Cc2ccc3c(c2)OCc2ccccc2-3)cc1 [Example 2, 1-(4-((6H-benzo[c]chromen-3-yl)methyl)phenyl)-5-methyl-1H-pyrazole-3-carboxamide] | 137 nM | 326 nM | – | –
Cc1cc(C(N)=O)nn1-c1ccc(Cc2ccc(C3=CCCN(C)CC3)cc2)cc1 [Example 5-7, 5-methyl-1-(4-(4-(1-methyl-2,3,6,7-tetrahydro-1H-azepin-4-yl)benzyl)phenyl)-1H-pyrazole-3-carboxamide] | 412 nM | 1370 nM | – | –
Cc1nc(C(N)=O)nn1-c1ccc(Cc2ccc(-c3ccc(CN4CCC5(CC4)COC5)cc3)cc2)cc1 [Example 38-8] | 51 nM | 211 nM | – | –
Cc1nc(C(N)=O)nn1-c1ccc(Cc2ccc(-c3ccc(C(=O)N4CCN[C@@H](C)C4)cc3)cc2)cc1 [Example 29, (S)-5-methyl-1-(4-((4′-(3-methylpiperazine-1-carbonyl)-[1,1′-biphenyl]-4-yl)methyl)phenyl)-1H-1,2,4-triazole-3-carboxamide] | 138 nM | 486 nM | – | –
Cc1cc(C(N)=O)nn1-c1ccc(Cc2ccc(-c3ccc(C(=O)N4CCN[C@@H](CO)C4)cc3)cc2)cc1 [Example 28, (R)-1-(4-((4′-(3-(hydroxymethyl)piperazine-1-carbonyl)-[1,1′-biphenyl]-4-yl)methyl)phenyl)-5-methyl-1H-pyrazole-3-carboxamide] | 26 nM | 73 nM | – | –
Cc1nc(C(N)=O)nn1-c1ccc(Cc2ccc(-c3ccc(CN4CCC(C)(C)CC4)cc3)cc2)cc1 [Example 38-10] | 175 nM | 397 nM | – | –
Cc1cc(C(N)=O)nn1-c1ccc(C(C)(C)c2ccc(-c3ccncc3)cc2)cc1 [Example 6-3, 5-methyl-1-(4-(2-(4-(pyridin-4-yl)phenyl)propan-2-yl)phenyl)-1H-pyrazole-3-carboxamide] | 149 nM | 432 nM | – | –
Cc1cc(C(N)=O)nn1-c1ccc(Cc2ccc(-c3cncc(CN(C)C)c3)cc2)cc1 [Example 5-6, 1-(4-(4-(5-((dimethylamino)methyl)pyridin-3-yl)benzyl)phenyl)-5-methyl-1H-pyrazole-3-carboxamide] | 312 nM | 1040 nM | – | –
Cc1cc(-c2ccc(C(C)(C)c3ccc(-n4nc(C(N)=O)nc4C)cc3)cc2)ccn1 [Example 13-9] | 183 nM | 714 nM | – | –
Cc1cc(C(N)=O)nn1-c1ccc(Cc2ccc(C3CCN(C)C3)cc2)cc1 (single isomer, unassigned) [Example 5-2, 5-methyl-1-(4-(4-(1-methylpyrrolidin-3-yl)benzyl)phenyl)-1H-pyrazole-3-carboxamide] | – | – | 792 nM | 2500 nM
Cc1cc(C(N)=O)nn1-c1ccc(Cc2ccc(-c3ccc(CN4CCNCC4)cn3)cc2)cc1 [Example 31-3, 5-methyl-1-(4-(4-(5-(piperazin-1-ylmethyl)pyridin-2-yl)benzyl)phenyl)-1H-pyrazole-3-carboxamide] | 158 nM | 190 nM | – | –
